Measurements as given in US20090204336A1, “PDZ-Domain Modulators” (Forschungsverbund Berlin e. V., priority 2005, published 2009).
Entries after “also recorded” stand apart in the source; their conditions may differ.

Experiments:
[1] = target: T1, PDZ-domain of the protein AF6 (Homo sapiens, UniProt P55196); experiment: 15N-HSQC NMR binding assay (chemical shift comparison with and without test ligand); settings: for binding to the PDZ-domain of the protein AF6 (binding / non-binding): 8 to 10-fold molar excess of test ligand, 50 μM protein; for binding of compound with singly bound R3 compared with the doubly bound equivalent: singly vs doubly bound residue R3; for binding site occupation from backbone amide chemical shifts, compared with compound 1: 8 to 10-fold ligand excess, FIG. 8
T1 construct: The ubiquitarily 15N marked PDZ-domains of the proteins AF6; made in house
T1 sequence (P55196 1007-1093 limits assumed): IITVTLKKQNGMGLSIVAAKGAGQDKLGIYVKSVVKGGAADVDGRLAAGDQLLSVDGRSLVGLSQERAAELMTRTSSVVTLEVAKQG
Description: The chemical shifts are split up into the 2 categories “large (bold italics)” and “small (normal letters)”. From the shown amino acid residues, the binding site of a compound on the protein can be determined by color-highlighting the backbone amide atoms of this amino acid residues in the 3D protein structure of Table 1 and creating the largest common cut set of all these atoms on the protein surface.

PDZ-domain of AF6 = target: T2, PDZ-domain of AF6 (Homo sapiens, UniProt P55196); experiment: Kd determination by 15N-HSQC NMR titration; format: binding; settings: macroscopic (apparent) Kd ± statistical standard deviation of curve adaptation; 50 μM 15N protein, pH 6.5, 300 K
T2 construct: The ubiquitarily 15N marked PDZ-domains of the proteins AF6; made in house
T2 sequence (P55196 1007-1093 limits assumed): T1 sequence (P55196 1007-1093 limits assumed)
Description: (§1) The ubiquitarily 15N marked PDZ-domains of the proteins AF6 [Boisguerin, P. et al., Chem. Biol. 11:449-459 (2004)] and Syntrophin [Schultz, J. et al., Nat Struct Biol., 5(1):19-24 (1998)] were prepared as described in the publications. For the NMR assay 50 μM 15N marked protein are mixed in a buffer of 20 mM Na phosphate pH 6.5, 50 mM NaCl and 10% d6-DMSO with a 8 to 10-fold molar excess of test ligand and a 15N-HSQC NMR spectrum is recorded at a temperature of 300 K on a Bruker DRX 600 MHz NMR spectrometer. Secondly, an identical comparison spectrum of protein in absence of test ligand is recorded. The NMR spectra are processed with the aid of the software XWIN-NMR and compared with each other with the aid of the software Sparky. […] Exemplarily is shown such a comparison of spectra for the PDZ-domain of AF6 in FIG. 7A and for the PDZ-domain of Syntrophin in FIG. 7B.
(§2) For the determination of equilibrium dissociation constants (in short: Kd values), a test ligand is added step-wise in increasing concentrations to 50 μM protein solution, and for each concentration step a 15N-HSQC NMR spectrum is recorded under the same conditions as described above. The average chemical shift of a resonance, d, is calculated according to the following equation from the NMR raw data: […]
(§3) wherein ΔH is the shift in ppm units along the 1H resonance axis, and ΔN is the shift in ppm units along the 15N resonance axis. The average shift, d, is drawn as a function of the concentration of the test ligand, and a binding curve results, to which is adapted the following mathematical equation:
(§4) wherein Lo is the total concentration of ligands, Po is the total concentration of protein and Kd is the Kd value. This equation describes the law of mass action of a reaction “protein+ligand=complex”.
(§5) With the aid of a software such as e.g. “Origin 5.0”, the adaptation is optimized in a non-linear manner, thereby providing for each investigated resonance a microscopic Kd value. From the mean value of all relevant microscopic Kd values, a macroscopic Kd value is calculated. In Table 2, the macroscopic Kd values including the statistical standard deviation for the binding of some test ligands to the PDZ-domains of AF6 and of Syntrophin are shown.
(§6) The number behind the ± symbol indicates the statistical standard deviation of a mathematical curve adaptation to the chemical binding equation “protein+ligand=complex”.

PDZ-domain of Syntrophin = target: T3, PDZ-domain of Syntrophin (Mus musculus, UniProt Q61234); experiment: Kd determination by 15N-HSQC NMR titration; format: binding; settings: macroscopic (apparent) Kd ± statistical standard deviation of curve adaptation; 50 μM 15N protein, pH 6.5, 300 K
T3 construct: made in house
T3 sequence (Q61234 81-164 limits assumed): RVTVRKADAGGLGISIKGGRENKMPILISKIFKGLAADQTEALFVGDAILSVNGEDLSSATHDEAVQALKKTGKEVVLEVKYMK
Description: as §1, §2, §3, §4, §5, §6

Row | Compound | binding to the PDZ-domain of the protein AF6 (binding / non-binding) [1] | further results
1 | O=C1NC(=S)SC1Cc1ccc(C(F)(F)F)cc1 (centres unmarked) [Compound 1] | show a binding; also recorded: particularly strong activity | binding of compound with singly bound R3 compared with the doubly bound equivalent [1]: stronger binding; Kd (PDZ-domain of AF6): 101 µM; Kd (PDZ-domain of Syntrophin): 239 ± 12 µM
2 | O=C1NC(=S)SC1Cc1ccccc1 (centres unmarked) [Compound 3] | show a binding | 
3 | O=C1NC(=S)SC1Cc1ccoc1 (centres unmarked) [Compound 4] | show a binding | 
4 | O=C1NC(=S)SC1=Cc1ccc(C(F)(F)F)cc1 [Compound 9] | binding; also recorded: particularly strong activity | 
5 | O=C1NC(=S)SC1Cc1cccc(C(F)(F)F)c1 (centres unmarked) [Compound 26] |  | binding of compound with singly bound R3 compared with the doubly bound equivalent [1]: weaker binding
6 | O=C1NC(=S)SC1=Cc1c[nH]c2ccccc12 [Compound 29] | non-binding; also recorded: do not show any binding | 
7 | O=C1NC(=S)SC1=Cc1ccc(-c2ccccc2)cc1 [Compound 30] | non-binding; also recorded: do not show any binding | 
8 | CN(C)CCN=C1NC(=O)C(=Cc2ccc(C(F)(F)F)cc2)S1 [Compound 39] | non-binding | 
9 | O=C1NC(=NCCCc2ccccc2)SC1=Cc1ccc(C(F)(F)F)cc1 [Compound 40] | non-binding | 
10 | O=C(O)c1cc2cc(Br)ccc2c(Br)c1O [Compound 41] |  | Kd (PDZ-domain of AF6): 419 ± 30 µM
11 | O=C(O)c1cccc([N+](=O)[O-])c1O [Compound 46] |  | binding site occupation from backbone amide chemical shifts, compared with compound 1 [1]: does not or only insufficiently occupy the binding sites L25 to V28 and S75 to T91
12 | O=c1[nH]c2c(Cl)c(Cl)c(Cl)cc2o1 [II] |  | Kd (PDZ-domain of AF6): 480 ± 33 µM; Kd (PDZ-domain of Syntrophin): 398 ± 32 µM

Second part, led by results:

Row | binding to the PDZ-domain of the protein AF6 (binding / non-binding) [1] | Compound | further results
13 | particularly strong activity | O=C1NC(=S)SC1Cc1ccc(Br)cc1 (centres unmarked) [Compound 2] | 
14 | show a binding | O=C1NC(=S)SC1Cc1ccsc1 (centres unmarked) [Compound 5] | 
15 | particularly strong activity | CC(c1ccc(C(F)(F)F)cc1)C1SC(=S)NC1=O (centres unmarked) [Compound 6] | 
16 | particularly strong activity | O=C1NC(=O)C(Cc2ccc(C(F)(F)F)cc2)S1 (centres unmarked) [Compound 7] | Kd (PDZ-domain of AF6): 280 ± 22 µM; Kd (PDZ-domain of Syntrophin): 330 ± 17 µM
17 | binding | O=C1NC(=S)SC1=Cc1ccsc1 [Compound 13] | 
18 | binding | O=C1NC(=S)SC1=Cc1cccc(C(F)(F)F)c1 [Compound 14] | 
19 | show a binding | CC(C)C=C1SC(=O)NC1=O [Compound 21] | binding site occupation from backbone amide chemical shifts, compared with compound 1 [1]: missing occupation of the partial binding site of the trifluoromethylphenyl residue
20 | non-binding | CN1C(=O)C(=Cc2ccc(C(F)(F)F)cc2)SC1=S [Compound 31] | 
21 | non-binding | CN1C(=O)C(=Cc2cccc(C(F)(F)F)c2)SC1=S [Compound 32] | 
22 | non-binding | NC1=NC(=O)C(=Cc2ccsc2)S1 [Compound 38] | 
